# Reference: US20240423977A1, “FIVE-MEMBERED RING-FUSED SIX-MEMBERED RING COMPOUND, PREPARATION METHOD THEREFOR, AND PHARMACEUTICAL COMPOSITION AND USE THEREOF” (HANGZHOU POLYMED BIOPHARMACEUTICALS, INC., priority 2022, published 2024)
# Columns and labels:
# [1] = target: IRAK4 protein in THP-1 cells (Homo sapiens (Human), UniProt Q9NWZ3); experiment: PROTAC-induced IRAK4 protein degradation in THP-1 cells (Western Blot); assay type: cell-based; details: for IRAK4 degradation rate 24 hours after administration of the compounds with a concentration of 1 μM: Western blotting; for DC50: concentration that degraded 50% of IRAK4, Western blotting, 24 hours after administration
# Description: 2.1 Based on the experimental method of Western Blot, specific antibodies were used to stain the THP-1 cell samples treated by gel electrophoresis, and the degrading activity of the compounds on the IRAK4 protein in THP-1 cells was determined by analyzing the position and depth of staining. The concentrations of compound for the detection included 0 μM, 0.3 μM, 1 μM and 3 μM, and the cells were treated by the compound for 8 hours, 16 hours, 24 hours, and 48 hours. Glyceraldehyde-3-phosphate dehydrogenase (GAPDH) is an internal reference protein in this experiment.
# Electrophoresis buffer: 50 mL MOPS SDS Running Buffer (20×) and 50 mL 20×TBS Tween-20 buffer were diluted with deionized water to 1 L as the electrophoresis buffer;
# 5% skim milk (w/v): 2.5 g skim milk was diluted with 50 mL 1×TBS Tween-20 buffer to prepare 5% skim milk;
# 5% BSA (w/v): 2.5 g BSA was diluted with 50 mL 1×TBS Tween-20 buffer to prepare 5% BSA;
# Anti-IRAK4 antibody was diluted with 5% BSA at 1:1000 into a primary antibody working solution;
# Goat Anti-Rabbit IgG H&L (HRP) was diluted with 5% BSA at 1:2000 into a second antibody working solution; and
# Goat Anti-Mouse IgG H&L (HRP) was diluted with 5% BSA at 1:2000 into a second antibody working solution.
# THP-1 cells were plated in a 6-well plate at a density of 1.5×10^6 cells per ml and incubated for 2 hours in a cell culture incubator under 37° C. and 5% CO2. The compound was diluted with DMSO to 0.6 mM, 0.2 mM and 0.06 mM respectively. 10 μL of compound solution was added to the corresponding wells, and continued to incubate in the incubator for 16 hours, 24 hours and 48 hours respectively. The compound-treated THP-1 cells in the well were collected, added with 120 μL of RIPA lysate containing protease inhibitor, Phosphatase Inhibitor Cocktail 2 and Phosphatase Inhibitor Cocktail 3, lysed on wet ice for 30 minutes, and then the cells lysate was centrifuged at a high speed and a low temperature for 5 minutes to collect the supernatant. The protein concentration of the cell sample was determined according to the instructions in the Pierce™ BCA Protein Assay Kit.
# The concentration of the sample was adjusted to be consistent using lysis buffer and NuPAGE® LDS sample buffer containing 1M DTT. The samples were heated at 95° C. for 5 minutes and centrifuged at a low temperature and at a high speed. 20 μL of the prepared protein sample and 4 μL of PageRuler Prestained Protein Ladder were added into the gel well for running at 80V voltage for 0.5 hours, then the voltage was adjusted to 120V for further running for 1.5 hours. The gel was removed and the proteins in the gel were transferred to the IBlotTM 2 transfer membrane set at 20V. After successful transfer, bands at 65 kDa-40 kDa and 40 kDa-30 kDa were cut respectively. The membranes were blocked with 5% skim milk for 1 hour at room temperature. The membranes were washed three times with 1× concentration of TBST, then incubated with IRAK4 antibody working solution overnight at 4° C. The IRAK4 antibody working solution was discarded, and the membranes were washed three times with 1×concentration of TBST, and incubated with Goat Anti-Rabbit IgG H&L (HRP) working solution and Goat Anti-Mouse IgG H&L (HRP) working solution at room temperature. After 1 hour of incubation, the antibody working solution was discarded and the membranes were washed three times with 1× concentration of TBST. According to the instructions of the kit SuperSignal™ West Femto Maximum Sensitivity Substrate, the reagents in the kit were mixed in equal volume proportions to prepare a luminescent liquid mixture. The membranes were incubated for 1 minute, then removed for exposure.
# The results of Western blotting 24 hours after administration of the compounds with a concentration of 1 μM were shown in Table 3: […]
# [2] = target: kinase IRAK4 (Homo sapiens (Human), UniProt Q9NWZ3); experiment: Inhibitory effects of compounds on kinase activity (fluorescence microfluidic mobility detection, competitive with ATP); assay type: biochemical; details: IRAK4 6 nM, ATP 10 μM
# Description: Based on an experimental method of fluorescence microfluidic mobility detection, an IC50 value of competitive binding of kinase IRAK4 to ATP by the compounds was determined. The initial detection concentration of the compounds was 10 μM, diluted 4-fold gradient down to […], and tested in duplicate. Among them, commercial staurosporine was the standard control substance in this experiment.
# 1) IRAK4 kinase was dissolved in kinase buffer (50 mM HEPES pH 7.5, 10 mM MgCl2, 2 mM DTT and 0.01% Brij-35) to a final concentration of 6 nM.
# 2) The substrate peptide FAM-P8 and ATP were dissolved in the above kinase buffer. The final concentrations of the IRAK4 substrate peptide FAM-P8 and ATP were 3 μM and 10 μM respectively.
# 3) Dilution of the compounds: the compound was first diluted to 50 μM, and then diluted down with a 4-fold gradient of DMSO. The solution without the compound and kinase is used as a blank control, corresponding to the “minimum value” shown below; and the solution without the compound but with kinase, adenosine 5′-triphosphate disodium salt hydrate, DMSO and buffer is used as a positive control, corresponding to the “maximum value” shown below. 4) Kinase reaction and termination: 10 μL of kinase buffer was added to a 384-well plate containing 5 μL of the compound to be tested, and incubated at room temperature for 10 minutes. Another 10 μL of buffer containing the substrate peptide and adenosine 5′-triphosphate disodium salt hydrate was added to the 384-well plate. After incubation at 28° C. for one hour, 25 μL stop solution (100 mM HEPES pH 7.5, 50 mM EDTA, 0.2% Coating Reagent #3 and 0.015% Brij-35) was added to each well to terminate the reaction.
# 5) Data reading: the CaliperEZ Reader II instrument was used to read the conversion rate data. Conditions: downstream voltage −500V, upstream voltage −2250V, base pressure −0.5 PSI, and screening pressure −1.2 PSI.
# 6) Data calculation: the conversion rate data was copied from CaliperEZ Reader II and converted into inhibition rate data. The calculation formula is as follows:
# [formula] • IC50 values were fitted using XLFit excel add-in version 5.4.0.8,
# Y=Bottom+(Top−Bottom)/(1+(IC50/X)^HillSlope) Fitting formula: […]
# kinase IRAK4, sequence (Q9NWZ3 whole entry): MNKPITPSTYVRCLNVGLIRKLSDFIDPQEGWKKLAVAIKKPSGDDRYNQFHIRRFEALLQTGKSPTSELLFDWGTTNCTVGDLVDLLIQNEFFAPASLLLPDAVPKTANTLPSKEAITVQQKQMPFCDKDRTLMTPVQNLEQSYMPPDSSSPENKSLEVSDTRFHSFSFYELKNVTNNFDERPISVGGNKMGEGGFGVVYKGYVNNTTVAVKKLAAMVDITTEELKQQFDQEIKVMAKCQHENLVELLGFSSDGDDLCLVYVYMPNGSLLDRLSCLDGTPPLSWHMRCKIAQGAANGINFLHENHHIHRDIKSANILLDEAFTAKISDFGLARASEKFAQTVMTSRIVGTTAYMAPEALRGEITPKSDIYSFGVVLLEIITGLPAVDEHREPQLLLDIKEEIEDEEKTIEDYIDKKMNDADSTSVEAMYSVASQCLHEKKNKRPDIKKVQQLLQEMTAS
# IRAK4 protein in THP-1 cells, sequence (Q9NWZ3 whole entry): as above
Structure (SMILES),IRAK4 degradation rate 24 hours after administration of the compounds with a concentration of 1 μM [1],DC50 [1],"IC50 ([2]; Table 1, class symbols)","IC50 ([2]; Table 2, substrate FAM-P8 3 μM)"
COc1cc2nn(C3CC4(CCN(C(=O)[C@H]5CC[C@H](CNc6ccc7c(c6)C(=O)N(C6CCC(=O)NC6=O)C7=O)CC5)CC4)C3)cc2cc1NC(=O)c1cccc(C(F)(F)F)n1 (stereo partly shown) [Compound I-3],75~100%,0.00364 µM,< 0.1 µM,0.016 µM
COc1cc2nn(C3CC4(CCN(C(=O)[C@H]5CC[C@H](Nc6ccc7c(c6)C(=O)N(C6CCC(=O)NC6=O)C7=O)CC5)CC4)C3)cc2cc1NC(=O)c1cccc(C(F)(F)F)n1 (stereo partly shown) [Compound I-4],,0.00206 µM,< 0.1 µM,0.0366 µM
COc1cc2nn(C3CC4(CCN(C(=O)C5CCN(c6cc7c(cc6F)C(=O)N(C6CCC(=O)NC6=O)C7=O)CC5)CC4)C3)cc2cc1NC(=O)c1cccc(C(F)(F)F)n1 (stereo not shown) [Compound I-8],,0.0082 µM,< 0.1 µM,0.0259 µM
O=C1CCC(N2C(=O)c3ccc(N4CCC(C(=O)N5CCC6(CC5)CC(n5cc7cc(NC(=O)c8cccc(C(F)(F)F)n8)c(N8CCOCC8)cc7n5)C6)CC4)cc3C2=O)C(=O)N1 (stereo not shown) [Compound I-9],,0.012 µM,,0.0329 µM
O=C1CCC(N2C(=O)c3ccc(N4CCC(C(=O)N5CCC6(CC5)CC(n5cc7cc(NC(=O)c8cccc(C(F)(F)F)n8)c(N8CC[C@@H](O)C8)cc7n5)C6)CC4)cc3C2=O)C(=O)N1 (stereo partly shown) [Compound I-10],,0.00507 µM,,0.024 µM
CC(O)(c1cc2nn(C3CC4(CCN(C(=O)C5CCN(c6ccc7c(c6)C(=O)N(C6CCC(=O)NC6=O)C7=O)CC5)CC4)C3)cc2cc1NC(=O)c1cccc(C(F)(F)F)n1)C(F)(F)F (stereo not shown) [Compound I-12F],,0.00108 µM,,0.0576 µM
COc1cc2nn(C3CC4(C3)CN(C(=O)C3CCN(c5ccc6c(c5)C(=O)N(C5CCC(=O)NC5=O)C6=O)CC3)C4)cc2cc1NC(=O)c1cccc(C(F)(F)F)n1 (stereo not shown) [Compound I-14],,0.0126 µM,,0.0166 µM
COc1cc2nn(C3CC4(CCN(C(=O)C5CC6(C5)CN(c5ccc7c(c5)C(=O)N(C5CCC(=O)NC5=O)C7=O)C6)CC4)C3)cc2cc1NC(=O)c1cccc(C(F)(F)F)n1 (stereo not shown) [Compound I-17],,0.0259 µM,,0.031 µM
COc1cc2nn(C3CC4(CCC(C(=O)N5CCN(c6ccc7c(c6)C(=O)N(C6CCC(=O)NC6=O)C7=O)CC5)CC4)C3)cc2cc1NC(=O)c1cccc(C(F)(F)F)n1 (stereo not shown) [Compound I-20],,0.0112 µM,,0.0236 µM
COc1cc2nn(C3CC4(CCN(C5CC6(CCN(c7ccc8c(c7)C(=O)N(C7CCC(=O)NC7=O)C8=O)CC6)C5)CC4)C3)cc2cc1NC(=O)c1cccc(C(F)(F)F)n1 (stereo not shown) [Compound I-24],,0.0153 µM,,0.0174 µM
COc1cc2nn(C3CC4(CCN(C(=O)C5CCN(c6cccc7c6C(=O)N(C6CCC(=O)NC6=O)C7=O)CC5)CC4)C3)cc2cc1NC(=O)c1cccc(C(F)(F)F)n1 (stereo not shown) [Compound I-25],,> 1 µM,,0.0204 µM
COc1cc2nn(C3CC4(CCN(C(=O)C5CCC6(CC5)CN(c5ccc7c(c5)C(=O)N(C5CCC(=O)NC5=O)C7=O)C6)CC4)C3)cc2cc1NC(=O)c1cccc(C(F)(F)F)n1 (stereo not shown) [Compound I-26],,0.0446 µM,,0.03 µM
COc1cc2nn(C3CCC4(CC3)CCN(C(=O)C3CCN(c5ccc6c(c5)C(=O)N(C5CCC(=O)NC5=O)C6=O)CC3)CC4)cc2cc1NC(=O)c1cccc(C(F)(F)F)n1 (stereo not shown) [Compound I-27],,0.0069 µM,,0.042 µM
COc1cc2nn(C3CC4(CCN(C(=O)[C@H]5CC[C@H](C(=O)N[C@H](C(=O)N6C[C@H](O)C[C@H]6C(=O)N[C@@H](C)c6ccc(-c7scnc7C)cc6)C(C)(C)C)CC5)CC4)C3)cc2cc1NC(=O)c1cccc(C(F)(F)F)n1 [Compound I-29],,0.0163 µM,,0.074 µM
COc1cc2nn(C3CC4(CCN(C(=O)[C@H]5CC[C@H](Oc6ccc7c(c6)C(=O)N(C6CCC(=O)NC6=O)C7=O)CC5)CC4)C3)cc2cc1NC(=O)c1cccc(C(F)(F)F)n1 (stereo partly shown) [Compound I-31],,0.0473 µM,,0.034 µM
COc1cc2c(cnn2C2CC3(CCC(C(=O)N4CCN(c5ccc6c(c5)C(=O)N(C5CCC(=O)NC5=O)C6=O)CC4)CC3)C2)cc1NC(=O)c1cccc(C(F)(F)F)n1 (stereo not shown) [Compound I-56],,,,1.96 µM

# Now those with a lower IC50 ([2]; Table 2, substrate FAM-P8 3 μM), led by results:
IRAK4 degradation rate 24 hours after administration of the compounds with a concentration of 1 μM [1],DC50 [1],"IC50 ([2]; Table 1, class symbols)","IC50 ([2]; Table 2, substrate FAM-P8 3 μM)",Structure (SMILES)
,0.0083 µM,,0.0125 µM,COc1cc2nn([C@H]3C[C@@H]4CN(C(=O)C5CCN(c6ccc7c(c6)C(=O)N(C6CCC(=O)NC6=O)C7=O)CC5)C[C@@H]4C3)cc2cc1NC(=O)c1cccc(C(F)(F)F)n1 (stereo partly shown) [Compound I-28]
,0.0099 µM,,0.0116 µM,COc1cc2nn(C3CC4(CCC(NC5CCN(c6ccc7c(c6)C(=O)N(C6CCC(=O)NC6=O)C7=O)CC5)CC4)C3)cc2cc1NC(=O)c1cccc(C(F)(F)F)n1 (stereo not shown) [Compound I-16]
,0.0036 µM,,0.0114 µM,CC(C)(O)c1cc2nn(C3CC4(CCN(C(=O)C5CCN(c6ccc7c(c6)C(=O)N(C6CCC(=O)NC6=O)C7=O)CC5)CC4)C3)cc2cc1NC(=O)c1cccc(C(F)(F)F)n1 (stereo not shown) [Compound I-5]
75~100%,0.00441 µM,< 0.1 µM,0.011 µM,COc1cc2nn(C3CC4(CCN(CC(=O)N5CCN(c6ccc7c(c6)C(=O)N(C6CCC(=O)NC6=O)C7=O)CC5)CC4)C3)cc2cc1NC(=O)c1cccc(C(F)(F)F)n1 (stereo not shown) [Compound I-2]
,0.0036 µM,,0.0081 µM,COc1cc2nn(C3CC4(CCN(C(=O)C5CCN(c6ccc7c(c6)CN(C6CCC(=O)NC6=O)C7=O)CC5)CC4)C3)cc2cc1NC(=O)c1cccc(C(F)(F)F)n1 (stereo not shown) [Compound I-7]
,0.00178 µM,,0.0081 µM,COc1cc2nn(C3CCC4(CC3)CN(C(=O)C3CCN(c5ccc6c(c5)C(=O)N(C5CCC(=O)NC5=O)C6=O)CC3)C4)cc2cc1NC(=O)c1cccc(C(F)(F)F)n1 (stereo not shown) [Compound I-19]
,0.0158 µM,< 0.1 µM,0.00481 µM,COc1cc2nn(C3CC4(CCN(CC5CCN(c6ccc7c(c6)C(=O)N(C6CCC(=O)NC6=O)C7=O)CC5)CC4)C3)cc2cc1NC(=O)c1cccc(C(F)(F)F)n1 (stereo not shown) [Compound I-13]
